Values after ≈ are worked out from the molar mass of the structure shown.
Experiments:
[1] = system: Musca domestica (houseflies - adults); test: Insecticidal mortality test, contact, houseflies; type: in vivo; details: cotton wool/milk, sugar, 1 day
Method: (§1) The activity of the compound was determined using a variety of insect pests. The compound was used in the form of liquid preparations containing 100, 50, 25, 10 or […] p.p.m. by weight of the compound. The preparations were made by dissolving the compound in a mixture of solvents consisting of 4 parts by volume of acetone and 1 part by volume of diacetone alcohol. The solutions were then diluted with water containing 0.01% by weight of a wetting agent sold under the trade name "LISSAPOL" NX until the liquid preparations contained the required concentration of the compound. "Lissapol" is a Trade Mark.
(§2) The test procedure adopted with regard to each pest was basically the same and comprised supporting a number of the pests on a medium which was usually a host plant or a foodstuff on which the pests feed, and treating either or both the pests and the medium with the preparations. The mortality of the pests was then assessed at periods usually varying from one to three days after the treatment.
(§3) The results of the tests are given in Table IIB for each of the products A to H at the rate in parts per million given in the second column as a grading of mortality on a scale of 0-9 wherein
(§4) In Table IIB the pest organism used is designated by a letter code and the pest species, the support medium or food, and the type and duration of test is given in Table IIA.

[2] = system: Spodoptera littoralis (cotton leaf worm - larvae); test: Insecticidal mortality test, contact/residual, cotton leaf worm; type: in vivo; details: cabbage leaves, 3 days
Method: as §1, §2, §3, §4

[3] = system: Plutella xylostella (diamond back moth - larvae); test: Insecticidal mortality test, residual, diamond back moth; type: in vivo; details: cabbage leaves, 3 days
Method: as §1, §2, §3, §4

[4] = system: Aphis fabae (aphids); test: Insecticidal mortality test, contact, aphids; type: in vivo; details: French beans, 2 days
Method: as §1, §2, §3, §4

[5] = system: Diabrotica balteata (rootworm - larvae); test: Insecticidal mortality test, contact, rootworm; type: in vivo; details: filter paper, 3 days
Method: as §1, §2, §3, §4

[6] = Fish toxicity, young trout; details: in vivo
Text: (§5) This Example illustrates the improved safety to fish of the compounds for use in the method of the invention compared with known compounds of similar chemical type. Table III sets out the LC50 values for young trout and carp in parts per million for the compounds for use in the method of this invention and parts per billion for the known (reference) compounds.

[7] = Fish toxicity, young carp; details: in vivo
Text: as §5

SMILES | grading of mortality MD ([1]; rate 10 ppm) | grading of mortality MD ([1]; rate 100 ppm) | grading of mortality SL ([2]; rate 10 ppm) | grading of mortality SL ([2]; rate 100 ppm) | grading of mortality PX ([3]; rate 10 ppm) | grading of mortality PX ([3]; rate 100 ppm) | grading of mortality AF ([4]; rate 10 ppm) | grading of mortality AF ([4]; rate 100 ppm) | grading of mortality DB ([5]; rate 10 ppm) | grading of mortality DB ([5]; rate 100 ppm) | LC50 ([6]; compounds of the invention) | further results
CC1(C)[C@H](C(=O)OCc2cccc(Oc3ccc(Cl)cc3)c2)[C@@H]1/C=C(\Cl)C(F)(F)F (racemic) [Compound 5, (+)-3-(4-chlorophenoxy)benzyl (+)-cis-3-(Z-2-chloro-3,3,3-trifluoroprop-l-en-yl)-2,2-dimethylcyclopropane carboxylate] | 1 (from 10 to 19%) | 9 (90 to 100%) | 9 (90 to 100%) | 9 (90 to 100%) | 0 (less than 10% mortality) | 9 (90 to 100%) | 9 (90 to 100%) | 9 (90 to 100%) | 3 (30 to 39%) | 5 (50 to 59%) | 10 µg/mL (≈ 21.8 µM) | 
CC1(C)[C@H](/C=C(\Cl)C(F)(F)F)[C@@H]1C(=O)OC(C#N)c1cccc(Oc2ccc(Br)cc2)c1 (mixture of isomers) [Compound 6, (+)-α-cyano-3-(4-bromophenoxy)benzyl (+)-cis-3-(Z-2-chloro-3,3,3-trifluoroprop-1-en-1-yl)-2,2-dimethylcyclopropane carboxylate] | 6 (60 to 69%) | 9 (90 to 100%) | 9 (90 to 100%) | 9 (90 to 100%) | 6 (60 to 69%) | 7 (70 to 79%) | 9 (90 to 100%) | 9 (90 to 100%) | 3 (30 to 39%) | 5 (50 to 59%) |  | LC50 ([7]; compounds of the invention): 10 µg/mL (≈ 18.9 µM)
CC1(C)[C@H](/C=C(\Cl)C(F)(F)F)[C@@H]1C(=O)OC(C#N)c1cccc(Oc2ccc(F)cc2)c1 (mixture of isomers) [Compound 7, (+)-α-cyano-3-(4-fluorophenoxy)benzyl (+)-cis-3-(Z-2-chloro-3,3,3-trifluoroprop-1-en-1-yl)-2,2-dimethylcyclopropane carboxylate] | 0 (less than 10% mortality) | 0 (less than 10% mortality) | 9 (90 to 100%) | 9 (90 to 100%) | 9 (90 to 100%) | 9 (90 to 100%) | 9 (90 to 100%) | 9 (90 to 100%) | 5 (50 to 59%) | 9 (90 to 100%) | 1 µg/mL (≈ 2.14 µM) | 
CC1(C)C(/C=C(\Cl)C(F)(F)F)C1C(=O)OC(C#N)c1cccc(Oc2ccccc2)c1 (racemic) [Cyhalothrin, (±)-α-cyano-3-phenoxybenzyl (±)-cis-3-(Z-2-chloro-3,3,3-trifluoroprop-1-en-1-yl)-2,2-dimethylcyclopropane carboxylate, reference compound] |  |  |  |  |  |  |  |  |  |  |  | LC50 ([6]; known (reference) compounds): 0.00073 µg/mL (≈ 0.00162 µM); LC50 ([7]; known (reference) compounds): 0.00134 µg/mL (≈ 0.00298 µM)
CC1(C)C(C=C(Cl)Cl)C1C(=O)OC(C#N)c1cccc(Oc2ccccc2)c1 (racemic) [Cypermethrin, (±)-α-cyano-3-phenoxybenzyl (±)-cis/trans-3-(2,2-dichlorovinyl)-2,2-dimethylcyclopropane carboxylate, reference compound] |  |  |  |  |  |  |  |  |  |  |  | LC50 ([6]; known (reference) compounds): ~0.002 µg/mL (≈ 0.0048 µM)
CC1(C)[C@H](C(=O)OC(C#N)c2cccc(Oc3ccc(Cl)cc3)c2)[C@@H]1/C=C(\Cl)C(F)(F)F (stereo partly drawn) [Compound 1, (+)-χ-cyano-3-(4-chlorophenoxy)benzyl (+)-cis-3-(Z-2-chloro-3,3,3-trifluoroprop-l-en-l-yl)-2,2-dimethylcyclopropane carboxylate] |  | 9 (90 to 100%) |  | 9 (90 to 100%) |  | 9 (90 to 100%) |  | 9 (90 to 100%) |  | 9 (90 to 100%) | 20 µg/mL (≈ 41.3 µM) | grading of mortality MD ([1]; rate 12 ppm): 9 (90 to 100%); grading of mortality MD ([1]; rate 25 ppm): 9 (90 to 100%); grading of mortality MD ([1]; rate 50 ppm): 9 (90 to 100%); grading of mortality SL ([2]; rate 12 ppm): 0 (less than 10% mortality); grading of mortality SL ([2]; rate 25 ppm): 0 (less than 10% mortality); grading of mortality SL ([2]; rate 50 ppm): 9 (90 to 100%); grading of mortality PX ([3]; rate 12 ppm): 2 (20 to 29%); grading of mortality PX ([3]; rate 25 ppm): 7 (70 to 79%); grading of mortality PX ([3]; rate 50 ppm): 9 (90 to 100%); grading of mortality AF ([4]; rate 12 ppm): 9 (90 to 100%); grading of mortality AF ([4]; rate 25 ppm): 9 (90 to 100%); grading of mortality AF ([4]; rate 50 ppm): 9 (90 to 100%); grading of mortality DB ([5]; rate 12 ppm): 0 (less than 10% mortality); grading of mortality DB ([5]; rate 25 ppm): 0 (less than 10% mortality); grading of mortality DB ([5]; rate 50 ppm): 9 (90 to 100%)
CC1(C)[C@H](/C=C(\Cl)C(F)(F)F)[C@H]1C(=O)OC(C#N)c1cccc(Oc2ccc(Cl)cc2)c1 (stereo partly drawn) [Compound 8, (+)-α-cyano-3-(4-chlorophenoxy)benzyl (+)-trans-3-(Z-2-chloro-3,3,3-trifluoroprop-l-en-yl)-2,2-dimethylcyclopropane carboxylate] | 9 (90 to 100%) | 9 (90 to 100%) | 9 (90 to 100%) | 9 (90 to 100%) | 8 (80 to 89%) | 9 (90 to 100%) | 9 (90 to 100%) | 9 (90 to 100%) | 0 (less than 10% mortality) | 5 (50 to 59%) |  | 

Reference: patent EP0091208A1, “Method for combating insect pests, and novel cyclopropane carboxylates useful as active ingredients therein” (IMPERIAL CHEMICAL INDUSTRIES PLC, priority 1982, dated 1983)
